Patent publication US7897627B2, “Heteroaryl derivatives as orexin receptor antagonists” (Hoffmann-La Roche Inc., priority 2007, dated 2011)

Target: T1, human orexin-2 (hOX2) receptor (Homo sapiens, UniProt O43614)
T1 construct: expressed in transfected cells
T1 sequence (O43614 1-444): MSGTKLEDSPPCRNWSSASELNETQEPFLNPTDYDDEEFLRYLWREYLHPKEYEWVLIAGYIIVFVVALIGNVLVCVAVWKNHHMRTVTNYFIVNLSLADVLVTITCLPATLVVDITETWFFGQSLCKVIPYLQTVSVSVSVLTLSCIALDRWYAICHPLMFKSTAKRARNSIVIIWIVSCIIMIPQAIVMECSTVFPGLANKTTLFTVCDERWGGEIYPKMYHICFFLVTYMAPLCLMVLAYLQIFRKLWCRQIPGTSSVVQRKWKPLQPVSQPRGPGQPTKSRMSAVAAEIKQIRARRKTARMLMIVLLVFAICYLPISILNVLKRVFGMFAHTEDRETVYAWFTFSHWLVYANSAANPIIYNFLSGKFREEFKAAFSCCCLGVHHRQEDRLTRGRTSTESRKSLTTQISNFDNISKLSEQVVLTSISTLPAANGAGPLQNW
Test: Intracellular Ca2+ mobilization assay (FLIPR), CHO(dHFr-) cells expressing hOX2, orexin-A as agonist
Type: cell-based
Conditions: antagonist Kb=IC50/(1+[A]/EC50); orexin-A at EC80; CHO(dHFr-)-OX2R cells; antagonist applied 25 min before agonist
Method: Intracellular Ca^2+ Mobilization Assay
The Chinese Hamster Ovary (dHFr-) mutant cell line stably expressing human orexin-1 (hOX1) or human orexin-2 (hOX2) receptors were maintained in Dulbecco's Modified Eagle Medium (1×) with GlutaMax™1, 4500 mg/L D-Glucose and Sodium Pyruvate (Catalog No. 31966-021, Invitrogen, Carlsbad, Calif.), 5% dialyzed fetal calf serum (Catalog No. 26400-044), 100 μg/ml penicillin and 100 μg/ml streptomycin. The cells were seeded at 5×10^4 cells/well in the poly-D-lysine treated, 96-well, black/clear-bottomed plates (Catalog No. BD356640, BD Biosciences, Palo Alto, Calif.). 24 h later, the cells were loaded for 1 h at 37° C. with 4 μM Flou-4 acetoxymethyl ester (Catalog No. F-14202, Molecular Probes, Eugene, Oreg.) in FLIPR buffer (1×HBSS, 20 mM HEPES, 2.5 mM Probenecid). Hanks' Balanced Salt Solution (HBSS) (10×) (catalog No. 14065-049) and HEPES (1M) (catalog No. 15630-056) were purchased from Invitrogen, Carlsbad, Calif. Probenecid (250 mM) (catalog No. P8761) was from Sigma, Buchs, Switzerland. The cells were washed five times with FLIPR buffer to remove excess dye and intracellular calcium mobilization, [Ca^2−]i were measured using a Fluorometric Imaging Plate Reader (FLIPR-96, Molecular Devices, Menlo Park, Calif.) as described previously (Malherbe et al., Mol. Pharmacol., 64, 823-832, 2003). Orexin A (catalog No. 1455, Toris Cookson Ltd, Bristol, UK) was used as agonist. Orexin A ([…] stock solution in DMSO) was diluted in FLIPR buffer+0.1% BSA. The EC50 and EC80 values of orexin-A were measured daily from standard agonist concentration-response curves in CHO(dHFr-)-OX1R and -OX2R cell lines. All compounds were dissolved in 100% DMSO. Inhibition curves were determined by addition of 11 concentrations (0.0001-10 μM) of inhibitory compounds and using EC80 value of orexin-A as agonist (a concentration which gave 80% of max agonist response, determined daily). The antagonists were applied 25 min (incubation at 37° C.) before the application of the agonist. Responses were measured as peak increase in fluorescence minus basal, normalized to the maximal stimulatory effect induced by EC80 value of orexin-A or orexin-B. Inhibition curves were fitted according to the Hill equation: y=100/(1+(x/IC50)^nH), where nH=slope factor using Excel-fit 4 software (Microsoft).
Kb values were calculated according to the following equation Kb=IC50/(1+[A]/EC50) where A is the concentration of agonist added which is very close to agonist EC80 value, and IC50 and EC50 values were derived from the antagonist inhibition and orexin-A or B agonist curves, respectively.

Row | Structure (SMILES) | Kb [µM]
1 | O=C(c1c(Cl)cccc1C(F)(F)F)N1CC[C@@H](Nc2nc3ccc(Cl)cc3o2)C1 [Example 79, [(R)-3-(6-Chloro-benzooxazol-2-ylamino)-pyrrolidin-1-yl]-(2-chloro-6-trifluoromethyl-phenyl)-methanone] | 0.0173
2 | O=C(c1ccccc1OC(F)(F)C(F)F)N1CC[C@@H](Nc2nc3ccc(Cl)cc3o2)C1 [Example 82, [(R)-3-(6-Chloro-benzooxazol-2-ylamino)-pyrrolidin-1-yl]-[2-(1,1,2,2-tetrafluoro-ethoxy)-phenyl]-methanone] | 0.0041
3 | O=C(c1ccccc1-c1ccsc1)N1CC[C@@H](Nc2nc3ccc(Cl)cc3o2)C1 [Example 84, [(R)-3-(6-Chloro-benzooxazol-2-ylamino)-pyrrolidin-1-yl]-(2-thiophen-3-yl-phenyl)-methanone] | 0.0056
4 | Cc1cc(C(=O)N2CC[C@@H](Nc3nc4ccc(Cl)cc4o3)C2)c(C(F)(F)F)o1 [Example 86, [(R)-3-(6-Chloro-benzooxazol-2-ylamino)-pyrrolidin-1-yl]-(5-methyl-2-trifluoromethyl-furan-3-yl)-methanone] | 0.0169
5 | O=C(c1c(F)cccc1N1CCCC1)N1CC[C@@H](Nc2nc3ccc(Cl)cc3o2)C1 [Example 90, [(R)-3-(6-Chloro-benzooxazol-2-ylamino)-pyrrolidin-1-yl]-(2-fluoro-6-pyrrolidin-1-yl-phenyl)-methanone] | 0.0186
6 | COc1cccc(OC)c1C(=O)N1CC[C@@H](Nc2cnc3cc(F)c(F)cc3n2)C1 [Example 92, [(R)-3-(6,7-Difluoro-quinoxalin-2-ylamino)-pyrrolidin-1-yl]-(2,6-dimethoxy-phenyl)-methanone] | 0.0029
7 | COc1cccc(OC)c1C(=O)N1CC[C@@H](Nc2nc3ccc(F)c(F)c3o2)C1 [Example 93, [(R)-3-(6,7-Difluoro-benzooxazol-2-ylamino)-pyrrolidin-1-yl]-(2,6-dimethoxy-phenyl)-methanone] | 0.0164
8 | COc1cccc(OC)c1C(=O)N1CC[C@@H](Nc2nc3c(F)cccc3s2)C1 [Example 94, (2,6-Dimethoxy-phenyl)-[(R)-3-(4-fluoro-benzothiazol-2-ylamino)-pyrrolidin-1-yl]-methanone] | 0.0091
9 | COc1cccc(OC)c1C(=O)N1CC[C@@H](Nc2nc3ccc(F)cc3o2)C1 [Example 95, (2,6-Dimethoxy-phenyl)-[(R)-3-(6-fluoro-benzooxazol-2-ylamino)-pyrrolidin-1-yl]-methanone] | 0.0426
10 | COc1cccc(OC)c1C(=O)N1CC[C@@H](Nc2nc3cccc(Cl)c3o2)C1 [Example 97, [(R)-3-(7-Chloro-benzooxazol-2-ylamino)-pyrrolidin-1-yl]-(2,6-dimethoxy-phenyl)-methanone] | 0.0063
11 | COc1cccc(OC)c1C(=O)N1CC[C@@H](Nc2nc3cccc(F)c3s2)C1 [Example 100, (2,6-Dimethoxy-phenyl)-[(R)-3-(7-fluoro-benzothiazol-2-ylamino)-pyrrolidin-1-yl]-methanone] | 0.01
12 | COc1cccc(OC)c1C(=O)N1CC[C@@H](Nc2nc3c(C)cccc3o2)C1 [Example 106, (2,6-Dimethoxy-phenyl)-[(R)-3-(4-methyl-benzooxazol-2-ylamino)-pyrrolidin-1-yl]-methanone] | 0.0129
13 | COc1cccc(OC)c1C(=O)N1CC[C@@H](Nc2cnc3cc(F)ccc3n2)C1 [Example 110, (2,6-Dimethoxy-phenyl)-[(R)-3-(6-fluoro-quinoxalin-2-ylamino)-pyrrolidin-1-yl]-methanone] | 0.0319
14 | O=C(c1ccccc1C(F)(F)F)N1CC[C@@H](Nc2nc3ccc(F)cc3s2)C1 [Example 112, [(R)-3-(6-Fluoro-benzothiazol-2-ylamino)-pyrrolidin-1-yl]-(2-trifluoromethyl-phenyl)-methanone] | 0.0344
15 | O=C(c1ccccc1OC(F)(F)F)N1CC[C@@H](Nc2nc3ccc(F)cc3s2)C1 [Example 113, [(R)-3-(6-Fluoro-benzothiazol-2-ylamino)-pyrrolidin-1-yl]-(2-trifluoromethoxy-phenyl)-methanone] | 0.0217
16 | O=C(c1ccccc1OC(F)(F)C(F)F)N1CC[C@@H](Nc2nc3ccc(F)cc3s2)C1 [Example 114, [(R)-3-(6-Fluoro-benzothiazol-2-ylamino)-pyrrolidin-1-yl]-[2-(1,1,2,2-tetrafluoro-ethoxy)-phenyl]-methanone] | 0.002
17 | Cc1ccc(C(F)(F)F)c(C(=O)N2CC[C@@H](Nc3nc4ccc(F)cc4s3)C2)c1 [Example 115, [(R)-3-(6-Fluoro-benzothiazol-2-ylamino)-pyrrolidin-1-yl]-(5-methyl-2-trifluoromethyl-phenyl)-methanone] | 0.0068
18 | Cc1onc(-c2ccccc2)c1C(=O)N1CC[C@@H](Nc2nc3ccc(F)cc3s2)C1 [Example 116, [(R)-3-(6-Fluoro-benzothiazol-2-ylamino)-pyrrolidin-1-yl]-(5-methyl-3-phenyl-isoxazol-4-yl)-methanone] | 0.0261
19 | Cc1noc(-c2ccccc2C(=O)N2CC[C@@H](Nc3nc4ccc(F)cc4s3)C2)n1 [Example 117, [(R)-3-(6-Fluoro-benzothiazol-2-ylamino)-pyrrolidin-1-yl]-[2-(3-methyl-[1,2,4]oxadiazol-5-yl)-phenyl]-methanone] | 0.0197
20 | Cc1ccc(Cl)c(C(=O)N2CC[C@@H](Nc3nc4ccc(F)cc4s3)C2)c1 [Example 118, (2-Chloro-5-methyl-phenyl)-[(R)-3-(6-fluoro-benzothiazol-2-ylamino)-pyrrolidin-1-yl]-methanone] | 0.039
21 | Cc1nc(C(=O)N2CC[C@@H](Nc3nc4ccc(F)cc4s3)C2)c(-c2ccccc2)s1 [Example 120, [(R)-3-(6-Fluoro-benzothiazol-2-ylamino)-pyrrolidin-1-yl]-(2-methyl-5-phenyl-thiazol-4-yl)-methanone] | 0.0188
22 | O=C(c1ccccc1OC(F)(F)F)N1CC[C@@H](Nc2nc3c(F)cccc3s2)C1 [Example 122, [(R)-3-(4-Fluoro-benzothiazol-2-ylamino)-pyrrolidin-1-yl]-(2-trifluoromethoxy-phenyl)-methanone] | 0.0193
23 | O=C(c1ccccc1OC(F)(F)C(F)F)N1CC[C@@H](Nc2nc3c(F)cccc3s2)C1 [Example 123, [(R)-3-(4-Fluoro-benzothiazol-2-ylamino)-pyrrolidin-1-yl]-[2-(1,1,2,2-tetrafluoro-ethoxy)-phenyl]-methanone] | 0.0032
24 | Cc1ccc(C(F)(F)F)c(C(=O)N2CC[C@@H](Nc3nc4c(F)cccc4s3)C2)c1 [Example 124, [(R)-3-(4-Fluoro-benzothiazol-2-ylamino)-pyrrolidin-1-yl]-(5-methyl-2-trifluoromethyl-phenyl)-methanone] | 0.0363
25 | Cc1noc(-c2ccccc2C(=O)N2CC[C@@H](Nc3nc4c(F)cccc4s3)C2)n1 [Example 126, [(R)-3-(4-Fluoro-benzothiazol-2-ylamino)-pyrrolidin-1-yl]-[2-(3-methyl-[1,2,4]oxadiazol-5-yl)-phenyl]-methanone] | 0.0144
26 | O=C(c1ccccc1OC(F)(F)C(F)F)N1CC[C@@H](Nc2nc3cc(F)cc(F)c3s2)C1 [Example 132, [(R)-3-(5,7-Difluoro-benzothiazol-2-ylamino)-pyrrolidin-1-yl]-[2-(1,1,2,2-tetrafluoro-ethoxy)-phenyl]-methanone] | 0.016
27 | Cc1onc(-c2ccccc2)c1C(=O)N1CC[C@@H](Nc2nc3cc(F)cc(F)c3s2)C1 [Example 134, [(R)-3-(5,7-Difluoro-benzothiazol-2-ylamino)-pyrrolidin-1-yl]-(5-methyl-3-phenyl-isoxazol-4-yl)-methanone] | 0.0228
